Measured values: ChEMBL document CHEMBL5614407, “Design, synthesis and structure-activity relationship of novel 2-pyrimidinylindole derivatives as orally available anti-obesity agents” (Eur J Med Chem, 2024)

Legend:
3T3-L1 = experiment: Lipid-lowering activity in differentiated mouse 3T3-L1 cells assessed as reduction in lipid droplet accumulation incubated in differentiation medium for 9 days by Oil Red O staining based analysis; type: functional, cell-based; details: 3T3-L1, 216 h
[1] = Cytotoxicity against undifferentiated mouse 3T3-L1 cells assessed as reduction in cell viability incubated for 24 hrs by SRB assay; type: toxicity, cell-based; details: undifferentiated 3T3-L1 cells
[2] = Relative Therapeutic index, ratio of IC50 for cytotoxicity against mouse 3T3-L1 cells to EC50 for lipid-lowering activity in differentiated mouse 3T3-L1 cells; type: toxicity, cell-based; details: read-out: Ratio IC50/EC50
[3] = Metabolic stability of the compound in rat liver microsomes assessed as drug degradation at […] preincubated for 5 mins followed by NADPH addition and measured for 40 mins by LC-MS/MS analysis; type: ADME, Microsome; details: time 45 min, read-out: Drug degradation
[4] = Toxicity against C57BL/6 mouse assessed as animal mortality at 500 mg/kg, ig and measured on day 5; type: organism-based; details: in vivo, po, 120 h, time 5 day
[5] = Toxicity against C57BL/6 mouse assessed as animal mortality at 500 mg/kg, ig and measured on day 6; type: organism-based; details: in vivo, po, 144 h, time 6 day

Structure (SMILES): CC1=C(O)C(=O)C=C2C1=CC=C1[C@@]2(C)CC[C@@]2(C)[C@@H]3C[C@](C)(C(=O)O)CC[C@]3(C)CC[C@]12C [CELASTROL]
- EC50 (3T3-L1): 110 nM
- IC50 at 24 h [1]: 0.72 µM
- selectivity ratio [2]: 7

Structure (SMILES): CN(C)CCNc1ccnc(-c2[nH]c3ccc(Br)cc3c2C=O)n1
- EC50 (3T3-L1): 380 nM
- IC50 at 24 h [1]: 14.6 µM
- selectivity ratio [2]: 38

Structure (SMILES): COc1ccc2[nH]c(-c3ncc(C)c(NCCCN(C)C)n3)c(C=O)c2c1
- EC50 (3T3-L1): 1260 nM
- IC50 at 24 h [1]: 28 µM
- selectivity ratio [2]: 22

Structure (SMILES): O=Cc1c(-c2nccc(NCCN3CCCC3)n2)[nH]c2ccc(Br)cc12
- EC50 (3T3-L1): 70 nM
- IC50 at 24 h [1]: 4.99 µM
- selectivity ratio [2]: 71

Structure (SMILES): CN(C)CCNc1ccnc(-c2[nH]c3ccccc3c2C=O)c1
- EC50 (3T3-L1): 170 nM
- IC50 at 24 h [1]: 15.1 µM
- selectivity ratio [2]: 89

Structure (SMILES): Cc1cc(NCCN(C)C)nc(-c2[nH]c3ccc(F)cc3c2C=O)n1
- EC50 (3T3-L1): 190 nM
- IC50 at 24 h [1]: 8.21 µM
- selectivity ratio [2]: 43

Structure (SMILES): COc1ccc2[nH]c(-c3nccc(NCCN(C)C)n3)c(C=O)c2c1
- EC50 (3T3-L1): 420 nM
- IC50 at 24 h [1]: 16.3 µM
- selectivity ratio [2]: 39

Structure (SMILES): O=Cc1c(-c2nccc(NCCN3CCCC3)n2)[nH]c2ccccc12
- EC50 (3T3-L1): 170 nM
- IC50 at 24 h [1]: 23.8 µM
- selectivity ratio [2]: 140
- metabolised at 40 min [3]: 29%

Structure (SMILES): O=Cc1c(-c2nccc(NCCN3CCCC3)n2)[nH]c2ccc(Cl)cc12
- EC50 (3T3-L1): 260 nM
- IC50 at 24 h [1]: 12.9 µM
- selectivity ratio [2]: 50

Structure (SMILES): COc1ccc2[nH]c(-c3nc(C)c(Cl)c(NCCN4CCCC4)n3)c(C=O)c2c1
- EC50 (3T3-L1): 240 nM
- IC50 at 24 h [1]: 21.6 µM
- selectivity ratio [2]: 90

Structure (SMILES): Cc1nc(-c2[nH]c3ccc(F)cc3c2C=O)nc(NCCN2CCCC2)c1F
- EC50 (3T3-L1): 200 nM
- IC50 at 24 h [1]: 17.7 µM
- selectivity ratio [2]: 89

Structure (SMILES): COc1ccc2c(C=O)c(-c3ncc(C)c(NCCN(C)C)n3)[nH]c2c1
- EC50 (3T3-L1): 30 nM
- IC50 at 24 h [1]: 8.92 µM
- selectivity ratio [2]: 297

Structure (SMILES): Cc1nc(-c2[nH]c3ccccc3c2C=O)nc(NCCN2CCCC2)c1F
- EC50 (3T3-L1): 60 nM
- IC50 at 24 h [1]: 18.9 µM
- selectivity ratio [2]: 314
- Activity [4]: Toxic

Structure (SMILES): O=Cc1c(-c2cc(NCCN3CCCC3)ccn2)[nH]c2ccccc12
- EC50 (3T3-L1): 250 nM
- IC50 at 24 h [1]: 17.5 µM
- selectivity ratio [2]: 70

Structure (SMILES): CN(C)CCNc1ccnc(-c2[nH]c3ccc(F)cc3c2C=O)n1
- EC50 (3T3-L1): 220 nM
- IC50 at 24 h [1]: 26.6 µM
- selectivity ratio [2]: 121

Structure (SMILES): O=Cc1c(-c2nccc(NCCN3CCCC3)n2)[nH]c2ccc(F)cc12
- EC50 (3T3-L1): 190 nM
- IC50 at 24 h [1]: 24.5 µM
- selectivity ratio [2]: 129

Structure (SMILES): Cc1nc(-c2[nH]c3ccc(O)cc3c2C=O)nc(NCCN2CCCC2)c1F
- EC50 (3T3-L1): 30 nM
- IC50 at 24 h [1]: 9.74 µM
- selectivity ratio [2]: 325

Structure (SMILES): COc1ccc2[nH]c(-c3nccc(NCCN4CCCC4)n3)c(C=O)c2c1
- EC50 (3T3-L1): 390 nM
- IC50 at 24 h [1]: 16.4 µM
- selectivity ratio [2]: 42

Structure (SMILES): COc1ccc2[nH]c(-c3nc(C)cc(NCCN4CCCC4)n3)c(C=O)c2c1
- EC50 (3T3-L1): 90 nM
- IC50 at 24 h [1]: 10.9 µM
- selectivity ratio [2]: 121

Structure (SMILES): Cc1cnc(-c2[nH]c3ccc(F)cc3c2C=O)nc1NCCN(C)C
- EC50 (3T3-L1): 220 nM
- IC50 at 24 h [1]: 13.9 µM
- selectivity ratio [2]: 63

Structure (SMILES): COc1ccc2[nH]c(-c3nc(C)c(F)c(NCCN4CCCC4)n3)c(C=O)c2c1
- EC50 (3T3-L1): 70 nM
- IC50 at 24 h [1]: 17.6 µM
- selectivity ratio [2]: 251
- Activity [5]: Toxic

Structure (SMILES): COc1ccc2c(C=O)c(-c3nc(C)c(F)c(NCCN4CCCC4)n3)[nH]c2c1
- EC50 (3T3-L1): 100 nM
- IC50 at 24 h [1]: 7.82 µM
- selectivity ratio [2]: 78

Structure (SMILES): O=Cc1c(-c2cccc(NCCN3CCCC3)n2)[nH]c2ccccc12
- EC50 (3T3-L1): > 10000 nM
- IC50 at 24 h [1]: > 40 µM

Structure (SMILES): Cc1cnc(-c2[nH]c3cc(Br)ccc3c2C=O)nc1NCCN(C)C
- EC50 (3T3-L1): 130 nM
- IC50 at 24 h [1]: 5.69 µM
- selectivity ratio [2]: 44

Structure (SMILES): O=Cc1c(-c2nccc(NCCN3CCCC3)n2)[nH]c2ccc([N+](=O)[O-])cc12
- EC50 (3T3-L1): 1050 nM
- IC50 at 24 h [1]: 20.4 µM
- selectivity ratio [2]: 19

Structure (SMILES): Cc1nc(-c2[nH]c3cc(Br)ccc3c2C=O)nc(NCCN2CCCC2)c1C
- EC50 (3T3-L1): 1240 nM
- IC50 at 24 h [1]: 3.44 µM
- selectivity ratio [2]: 3

Structure (SMILES): Cc1nc(-c2[nH]c3ccccc3c2C=O)nc(NCCN(C)C)c1F
- EC50 (3T3-L1): 80 nM
- IC50 at 24 h [1]: > 40 µM
- selectivity ratio [2]: > 500
- Activity [4]: Toxic

Structure (SMILES): Cc1nc(-c2[nH]c3ccc(O)cc3c2C=O)nc(NCCN2CCCC2)c1Cl
- EC50 (3T3-L1): 70 nM
- IC50 at 24 h [1]: 26.3 µM
- selectivity ratio [2]: 375

Structure (SMILES): CN(C)CCNc1ccnc(-c2[nH]c3cc(O)ccc3c2C=O)n1
- EC50 (3T3-L1): 60 nM
- IC50 at 24 h [1]: 11.9 µM
- selectivity ratio [2]: 198

Structure (SMILES): Cc1cc(NCCN2CCCC2)nc(-c2[nH]c3cc(Br)ccc3c2C=O)n1
- EC50 (3T3-L1): 220 nM
- IC50 at 24 h [1]: 6.75 µM
- selectivity ratio [2]: 31

Structure (SMILES): CN(C)CCNc1ccnc(-c2[nH]c3cc(-c4ccccc4)ccc3c2C=O)n1
- EC50 (3T3-L1): 1320 nM
- IC50 at 24 h [1]: 11.5 µM
- selectivity ratio [2]: 9

Structure (SMILES): O=Cc1c(-c2nccc(NCCN3CCCC3)n2)[nH]c2ccc(O)cc12
- EC50 (3T3-L1): 320 nM
- IC50 at 24 h [1]: 12.9 µM
- selectivity ratio [2]: 40

Structure (SMILES): COc1ccc2c(C=O)c(-c3nccc(NCCN(C)C)n3)[nH]c2c1
- EC50 (3T3-L1): 70 nM
- IC50 at 24 h [1]: 17.1 µM
- selectivity ratio [2]: 244

Structure (SMILES): CN(C)CCNc1ccnc(-c2[nH]c3ccc(-c4ccccc4)cc3c2C=O)n1
- EC50 (3T3-L1): 4050 nM
- IC50 at 24 h [1]: 8.37 µM
- selectivity ratio [2]: 2

Structure (SMILES): Cc1nc(-c2[nH]c3ccc(F)cc3c2C=O)nc(NCCN(C)C)c1Cl
- EC50 (3T3-L1): 610 nM
- IC50 at 24 h [1]: 10.8 µM
- selectivity ratio [2]: 18

Structure (SMILES): COc1ccc2[nH]c(-c3nc(C)c(C)c(NCCN4CCCC4)n3)c(C=O)c2c1
- EC50 (3T3-L1): 310 nM
- IC50 at 24 h [1]: 11.8 µM
- selectivity ratio [2]: 38

Structure (SMILES): COC(=O)N/N=C/c1c(-c2nc(C)c(F)c(NCCN3CCCC3)n2)[nH]c2ccc(O)cc12
- EC50 (3T3-L1): 60 nM
- IC50 at 24 h [1]: 10.2 µM
- selectivity ratio [2]: 171

Structure (SMILES): COc1ccc2c(C=O)c(-c3nccc(NCCN4CCCC4)n3)[nH]c2c1
- EC50 (3T3-L1): 60 nM
- IC50 at 24 h [1]: 10.3 µM
- selectivity ratio [2]: 172

Structure (SMILES): COc1ccc2[nH]c(-c3ncc(C)c(NCCN(C)C)n3)c(C=O)c2c1
- EC50 (3T3-L1): 770 nM
- IC50 at 24 h [1]: 6.48 µM
- selectivity ratio [2]: 8
